In US10851073B2, “Protein tyrosine phosphatase inhibitors and methods of use thereof” (Calico Life Sciences LLC, priority 2019, dated 2020):
pIC50: −log10 of the molar value.

Columns and labels:
[1] = system: Pan T cells isolated from C57BL6 splenocytes; experiment: T cell function assays (IFNγ and TNFα in supernatants); format: cell-based, mouse; conditions: 0.3 μM compound, 3 days; for IFNγ [pg/mL] anti-CD3/CD28 / TNFα [pg/mL] anti-CD3/CD28: anti-CD3/CD28 stimulation
Experimental: Example 231: T Cell Function Assays Pan T cells were isolated from C57BL6 splenocytes using a MACS Pan T cell isolation kit II (Miltenyi Biotec, Auburn, Calif.) according to the manufacturer's instructions. Isolated T cells (200,000 cells/well in a 96 well flat-bottom plate) were cultured in RPMI 1640 supplemented with 10% FBS, […] 2-mercaptoethanol, 100 U/mL penicillin, and 100 μg/mL streptomycin, and incubated with 0.3 μM compound or DMSO in duplicates. After 1 hour, mouse T cell activator CD3/CD28 Dynabeads (ThermoFisher Scientific, Waltham, Mass.) were added at a 1:5 beads to cells ratio to stimulate the T cells for 3 days. T cells with or without compound were incubated in the absence of T cell activator beads to evaluate if compounds nonspecifically stimulate the T cells. After 3 days of stimulation, supernatants were collected and IFNγ and TNFα in supernatants were assessed using an MSD V-plex assay (Meso Scale Discovery, Rockville, Md.).

[2] = target: T1, His tagged full-length PTPN1 protein (Homo sapiens, UniProt P18031); experiment: Mobility shift assay (MSA) used to determine potency of PTPN1 inhibitors; format: biochemical; conditions: enzyme 0.5 nM, substrate 2 μM
T1 construct: made in house
T1 sequence (P18031 with tags, fused parts or gaps): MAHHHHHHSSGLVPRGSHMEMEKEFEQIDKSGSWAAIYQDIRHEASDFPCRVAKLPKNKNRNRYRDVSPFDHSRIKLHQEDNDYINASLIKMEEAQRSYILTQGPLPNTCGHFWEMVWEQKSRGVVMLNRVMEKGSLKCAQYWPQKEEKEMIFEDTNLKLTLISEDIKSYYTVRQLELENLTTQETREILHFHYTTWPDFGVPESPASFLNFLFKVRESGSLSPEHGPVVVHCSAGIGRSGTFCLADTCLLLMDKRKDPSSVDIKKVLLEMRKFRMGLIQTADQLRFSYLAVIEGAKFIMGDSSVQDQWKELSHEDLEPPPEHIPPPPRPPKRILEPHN
How it was run: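 Full-length His-tagged human PTPN1 (0.5 nM) was preincubated 10 min at room temperature with compound (12-point, 1:3 dilution) in HEPES pH 7.5 buffer with EGTA, EDTA, Tween 20 and DTT. A 2 μM fluorescent phospho-insulin receptor peptide was then added for 10 min before quench. Mobility-shift % conversion gave % inhibition and IC50.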

[3] = system: B16F10 mouse melanoma cells; experiment: B16F10 IFNγ-induced cellular growth inhibition assay; format: cell-based; conditions: B16-F10, with 0.5 ng/mL IFNγ, read-out: B16F10 GI IC50
How it was run: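 B16F10 cells grown in DMEM+10% FBS, with or without 0.5 ng/mL final mouse IFNγ, and dosed in triplicate at 100 μM to 0.001 μM final (0.1% DMSO). Confluence imaged every 6 h for 5 days; percent growth inhibition versus DMSO/with-IFNγ control taken once DMSO/no-IFNγ wells exceeded 95% confluence, giving IC50.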

[4] = target: T2, His tagged PTPN2 (TC45) protein (Homo sapiens, UniProt P17706); experiment: Mobility shift assay used to determine potency of PTPN2 inhibitors; format: biochemical; conditions: enzyme 0.5 nM, substrate 2 μM; read-out: PTPN2 MSA IC50
T2 construct: made in house
T2 sequence (P17706 with tags, fused parts or gaps isoform P17706-2): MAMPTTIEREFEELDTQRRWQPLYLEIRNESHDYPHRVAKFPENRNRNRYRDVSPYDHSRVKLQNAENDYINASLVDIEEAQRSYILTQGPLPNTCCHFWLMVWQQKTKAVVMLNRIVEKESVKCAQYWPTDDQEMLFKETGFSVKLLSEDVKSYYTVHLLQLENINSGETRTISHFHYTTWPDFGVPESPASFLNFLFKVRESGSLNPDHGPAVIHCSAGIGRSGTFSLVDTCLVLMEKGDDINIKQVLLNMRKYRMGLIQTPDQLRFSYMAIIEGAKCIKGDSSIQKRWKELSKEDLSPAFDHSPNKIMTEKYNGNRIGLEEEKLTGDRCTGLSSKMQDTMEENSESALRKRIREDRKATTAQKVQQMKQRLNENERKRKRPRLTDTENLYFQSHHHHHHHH
How it was run: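 Enzyme (0.5 nM) preincubated with compound (12-point, 1:3 dilution) 10 min at room temperature in 50 mM HEPES pH 7.5, 1 mM EGTA, 10 mM EDTA, 0.01% Tween 20, 2 mM DTT; OG488-labelled phospho-insulin-receptor peptide substrate (2 μM) added for 10 min, then quenched. Microfluidic mobility shift (ex 488/em 530 nm) gave % conversion; IC50 from % inhibition.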

Structure (SMILES)	pIC50 [2]	pIC50 [3]	IFNγ [pg/mL] anti-CD3/CD28 [1] [pg/mL]	TNFα [pg/mL] anti-CD3/CD28 [1] [pg/mL]	IFNγ [pg/mL] no stimulation [1] [pg/mL]	TNFα [pg/mL] no stimulation [1] [pg/mL]	pIC50 [4]
O=C1CN(c2c(O)cc3c(c2F)C[C@H](NCCC2(C(F)(F)F)CC2)CC3)S(=O)(=O)N1 (single isomer, unassigned) [Compound 148]	> 9.00	> 6.00	168.4	123.4	1.0	0.8	> 9.00
CCC(CC)CCN[C@@H]1CCc2cc(O)c(N3CC(=O)NS3(=O)=O)c(F)c2C1 [Compound 204, 5-{(7R)-7-[(3-ethylpentyl)amino]-1-fluoro-3-hydroxy-5,6,7,8-tetrahydronaphthalen-2-yl}-1λ^6,2,5-thiadiazolidine-1,1,3-trione]			148.8	105.4	1.8	1.1	
O=C1CN(c2c(O)cc3c(c2F)CN(CCC2CC4CCC2O4)CC3)S(=O)(=O)N1 (centres unmarked) [Compound 225, 5-{8-fluoro-6-hydroxy-2-[2-(7-oxabicyclo[2.2.1]heptan-2-yl)ethyl]-1,2,3,4-tetrahydroisoquinolin-7-yl}-1λ^6,2,5-thiadiazolidine-1,1,3-trione]	7.00 to 8.00	5.00 to 6.00					8.00 to 9.00
O=C1CN(c2c(O)cc3c(c2F)CC(NCC[C@H]2C[C@@H](OC(F)(F)F)C2)CC3)S(=O)(=O)N1 (some centres unmarked) [Compound 234, 5-[1-fluoro-3-hydroxy-7-({2-[(1s,3r)-3-(trifluoromethoxy)cyclobutyl]ethyl}amino)-5,6,7,8-tetrahydronaphthalen-2-yl]-1λ^6,2,5-thiadiazolidine-1,1,3-trione]	8.00 to 9.00	5.00 to 6.00					7.00 to 8.00
O=C1CN(c2c(O)cc3c(c2F)CC(N[C@H]2C[C@@H](OC(F)(F)F)C2)CC3)S(=O)(=O)N1 (some centres unmarked) [Compound 235, 5-(1-fluoro-3-hydroxy-7-{[(1s,3s)-3-(trifluoromethoxy)cyclobutyl]amino}-5,6,7,8-tetrahydronaphthalen-2-yl)-1λ^6,2,5-thiadiazolidine-1,1,3-trione]	7.00 to 8.00	5.00 to 6.00					7.00 to 8.00
CCCC1(NNC(=O)c2ccccc2)CCc2cc(O)c(N3CC(=O)NS3(=O)=O)c(F)c2C1 (centres unmarked) [Compound 241, N′-[8-fluoro-6-hydroxy-2-propyl-7-(1,1,4-trioxo-1λ^6,2,5-thiadiazolidin-2-yl)-1,2,3,4-tetrahydronaphthalen-2-yl]benzohydrazide]	7.00 to 8.00	4.00 to 5.00					7.00 to 8.00
CCCC1(N)CCc2cc(O)c(N3CC(=O)NS3(=O)=O)c(F)c2C1 (centres unmarked) [Compound 255, 5-(7-amino-1-fluoro-3-hydroxy-7-propyl-5,6,7,8-tetrahydronaphthalen-2-yl)-1λ^6,2,5-thiadiazolidine-1,1,3-trione]	7.00 to 8.00	5.00 to 6.00					< 7.00

Further lines, with some results ahead:

pIC50 [2]	pIC50 [3]	Structure (SMILES)	IFNγ [pg/mL] anti-CD3/CD28 [1] [pg/mL]	TNFα [pg/mL] anti-CD3/CD28 [1] [pg/mL]	IFNγ [pg/mL] no stimulation [1] [pg/mL]	TNFα [pg/mL] no stimulation [1] [pg/mL]	pIC50 [4]
8.00 to 9.00	> 6.00	CC(C)CCNC[C@@H]1Cc2cc(O)c(N3CC(=O)NS3(=O)=O)c(F)c2C1 (single isomer, unassigned) [Compound 291]	83.3	91.2	0.7	1.1	8.00 to 9.00
8.00 to 9.00	> 6.00	C[C@@H](O)CCN[C@@H]1CCc2cc(O)c(N3CC(=O)NS3(=O)=O)c(F)c2C1 (single isomer, unassigned) [Compound 307]	66.7	89.5	1.2	1.1	8.00 to 9.00
7.00 to 8.00	5.00 to 6.00	CC(C)CCCC1(N)CCc2cc(O)c(N3CC(=O)NS3(=O)=O)c(F)c2C1 (centres unmarked) [Compound 254, 5-[7-amino-1-fluoro-3-hydroxy-7-(4-methylpentyl)-5,6,7,8-tetrahydronaphthalen-2-yl]-1λ^6,2,5-thiadiazolidine-1,1,3-trione]	97.0	91.2	0.7	1.1	7.00 to 8.00
7.00 to 8.00	5.00 to 6.00	CC(C)CCNCC1Cc2cc(O)c(N3CC(=O)NS3(=O)=O)c(F)c2C1 (centres unmarked) [Compound 268, 5-(4-fluoro-6-hydroxy-2-{[(3-methylbutyl)amino]methyl}-2,3-dihydro-1H-inden-5-yl)-1λ^6,2,5-thiadiazolidine-1,1,3-trione]					7.00 to 8.00
8.00 to 9.00	4.00 to 5.00	CC(C)CCN(CCC(C)C)CC1Cc2cc(O)c(N3CC(=O)NS3(=O)=O)c(F)c2C1 (centres unmarked) [Compound 269, 5-(2-{[bis(3-methylbutyl)amino]methyl}-4-fluoro-6-hydroxy-2,3-dihydro-1H-inden-5-yl)-1λ^6,2,5-thiadiazolidine-1,1,3-trione]					8.00 to 9.00
8.00 to 9.00	5.00 to 6.00	CC1(C)CC1CCCN1CCc2cc(O)c(N3CC(=O)NS3(=O)=O)c(F)c2C1 (centres unmarked) [Compound 288, 5-{2-[3-(2,2-dimethylcyclopropyl)propyl]-8-fluoro-6-hydroxy-1,2,3,4-tetrahydroisoquinolin-7-yl}-1λ^6,2,5-thiadiazolidine-1,1,3-trione]					7.00 to 8.00
